The supplement of paper PMC10307832

How the values were obtained:
Experiment in all cases: relative viability (nuclei count vs DMSO), 5 days (fraction); higher = more cells survive
NCI-H2405 = test system: NCI-H2405
Outline: (§1)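 For relative viability, nuclei counts in treated wells were divided by those in vehicle wells. Lung cancer cell lines had been pin-tool dosed in 1536-well plates the day after seeding and cultured for 5 days, then fixed and stained in one step (final 0.05% Triton X-100, 1% formaldehyde, 1 ug/ml Hoechst) and imaged at 4×. Doses were one drug alone or a fixed anchor-drug dose plus five library-drug doses (not always all listed) in √10 steps, and values are duplicate-plate medians.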

NCI-H1734 = test system: NCI-H1734
Outline: as §1

NCI-H2170 = test system: NCI-H2170
Outline: as §1

NCI-H647 = test system: NCI-H647
Outline: as §1

NCI-H441 = test system: NCI-H441
Outline: as §1

LOU-NH91 = test system: LOU-NH91
Outline: as §1

H3255 = test system: H3255
Outline: as §1

201T = test system: 201T
Outline: as §1

NCI-H1563 = test system: NCI-H1563
Outline: as §1

RERF-LC-KJ = test system: RERF-LC-KJ
Outline: as §1

NCI-H2085 = test system: NCI-H2085
Outline: as §1

COR-L23 = test system: COR-L23
Outline: as §1

NCI-H1793 = test system: NCI-H1793
Outline: as §1

NCI-H1993 = test system: NCI-H1993
Outline: as §1

NCI-H3122 = test system: NCI-H3122
Outline: as §1

NCI-H2023 = test system: NCI-H2023
Outline: as §1

NCI-H1650 = test system: NCI-H1650
Outline: as §1

PC-14 = test system: PC-14
Outline: as §1

NCI-H2347 = test system: NCI-H2347
Outline: as §1

HCC-44 = test system: HCC-44
Outline: as §1

SW 900 = test system: SW 900
Outline: as §1

NCI-H520 = test system: NCI-H520
Outline: as §1

EPLC-272H = test system: EPLC-272H
Outline: as §1

`CC1(C)CCC(c2ccc(Cl)cc2)=C(CN2CCN(c3ccc(C(=O)NS(=O)(=O)c4ccc(N[C@H](CCN5CCOCC5)CSc5ccccc5)c(S(=O)(=O)C(F)(F)F)c4)cc3)CC2)C1` [Navitoclax] + N=C(N)NC(=N)NCCc1ccccc1 [Phenformin] (partner 250 µM) was tested, and the relative viability (NCI-H2405; first compound 0.005 µM) was 0.413, the relative viability (NCI-H2405; first compound 0.01581 µM) was 0.44 and the relative viability (NCI-H2405; first compound 0.05 µM) was 0.376. It also gave a relative viability (NCI-H2405; first compound 0.1581 µM) of 0.4, a relative viability (NCI-H2405; first compound 0.5 µM) of 0.303 and a relative viability (NCI-H1734; first compound 0.005 µM) of 0.367. It also gave a relative viability (NCI-H1734; first compound 0.01581 µM) of 0.461, a relative viability (NCI-H1734; first compound 0.1581 µM) of 0.371 and a relative viability (NCI-H1734; first compound 0.5 µM) of 0.341. The relative viability (NCI-H2170; first compound 0.005 µM) was 0.442, the relative viability (NCI-H2170; first compound 0.01581 µM) was 0.47 and the relative viability (NCI-H2170; first compound 0.05 µM) was 0.391. It also gave a relative viability (NCI-H2170; first compound 0.1581 µM) of 0.42, a relative viability (NCI-H2170; first compound 0.5 µM) of 0.347 and a relative viability (NCI-H647; first compound 0.005 µM) of 0.536. The relative viability (NCI-H647; first compound 0.01581 µM) was 0.488, the relative viability (NCI-H647; first compound 0.05 µM) was 0.651 and the relative viability (NCI-H647; first compound 0.1581 µM) was 0.323. For the same compound, the relative viability (NCI-H647; first compound 0.5 µM) was 0.445, the relative viability (NCI-H441; first compound 0.005 µM) was 0.919 and the relative viability (NCI-H441; first compound 0.01581 µM) was 1.14. It also gave a relative viability (NCI-H441; first compound 0.05 µM) of 0.846, a relative viability (NCI-H441; first compound 0.1581 µM) of 0.851 and a relative viability (NCI-H441; first compound 0.5 µM) of 0.818. The relative viability (LOU-NH91; first compound 0.005 µM) was 0.8, the relative viability (LOU-NH91; first compound 0.01581 µM) was 0.693 and the relative viability (LOU-NH91; first compound 0.05 µM) was 0.636. The relative viability (LOU-NH91; first compound 0.1581 µM) was 0.652, the relative viability (LOU-NH91; first compound 0.5 µM) was 0.427 and the relative viability (H3255; first compound 0.005 µM) was 0.338. For the same compound, the relative viability (H3255; first compound 0.01581 µM) was 0.399, the relative viability (H3255; first compound 0.05 µM) was 0.376 and the relative viability (H3255; first compound 0.1581 µM) was 0.39. The relative viability (H3255; first compound 0.5 µM) was 0.339, the relative viability (201T; first compound 0.005 µM) was 0.447 and the relative viability (201T; first compound 0.01581 µM) was 0.458. It also gave a relative viability (201T; first compound 0.05 µM) of 0.456, a relative viability (201T; first compound 0.1581 µM) of 0.438 and a relative viability (201T; first compound 0.5 µM) of 0.492. It also gave a relative viability (NCI-H1563; first compound 0.005 µM) of 0.685, a relative viability (NCI-H1563; first compound 0.01581 µM) of 0.723 and a relative viability (NCI-H1563; first compound 0.05 µM) of 0.611. It also gave a relative viability (NCI-H1563; first compound 0.1581 µM) of 0.682, a relative viability (NCI-H1563; first compound 0.5 µM) of 0.665 and a relative viability (RERF-LC-KJ; first compound 0.005 µM) of 0.41. It also gave a relative viability (RERF-LC-KJ; first compound 0.01581 µM) of 0.353, a relative viability (RERF-LC-KJ; first compound 0.05 µM) of 0.428 and a relative viability (RERF-LC-KJ; first compound 0.1581 µM) of 0.381. It also gave a relative viability (RERF-LC-KJ; first compound 0.5 µM) of 0.437, a relative viability (NCI-H2085; first compound 0.005 µM) of 0.732 and a relative viability (NCI-H2085; first compound 0.01581 µM) of 0.847. The relative viability (NCI-H2085; first compound 0.05 µM) was 0.593, the relative viability (NCI-H2085; first compound 0.1581 µM) was 0.746 and the relative viability (NCI-H2085; first compound 0.5 µM) was 0.786. The relative viability (COR-L23; first compound 0.005 µM) was 0.409, the relative viability (COR-L23; first compound 0.01581 µM) was 0.494 and the relative viability (COR-L23; first compound 0.05 µM) was 0.516. For the same compound, the relative viability (COR-L23; first compound 0.1581 µM) was 0.438, the relative viability (COR-L23; first compound 0.5 µM) was 0.447 and the relative viability (NCI-H1793; first compound 0.005 µM) was 0.527. For the same compound, the relative viability (NCI-H1793; first compound 0.01581 µM) was 0.445, the relative viability (NCI-H1793; first compound 0.1581 µM) was 0.309 and the relative viability (NCI-H1793; first compound 0.5 µM) was 0.313. For the same compound, the relative viability (NCI-H1993; first compound 0.005 µM) was 0.545, the relative viability (NCI-H1993; first compound 0.01581 µM) was 0.498 and the relative viability (NCI-H1993; first compound 0.05 µM) was 0.629. It also gave a relative viability (NCI-H1993; first compound 0.1581 µM) of 0.587, a relative viability (NCI-H1993; first compound 0.5 µM) of 0.616 and a relative viability (NCI-H3122; first compound 0.005 µM) of 0.402. For the same compound, the relative viability (NCI-H3122; first compound 0.01581 µM) was 0.423, the relative viability (NCI-H3122; first compound 0.05 µM) was 0.306 and the relative viability (NCI-H3122; first compound 0.1581 µM) was 0.348. The relative viability (NCI-H3122; first compound 0.5 µM) was 0.391, the relative viability (NCI-H2023; first compound 0.005 µM) was 0.432 and the relative viability (NCI-H2023; first compound 0.01581 µM) was 0.447. It also gave a relative viability (NCI-H2023; first compound 0.05 µM) of 0.382, a relative viability (NCI-H2023; first compound 0.1581 µM) of 0.425 and a relative viability (NCI-H2023; first compound 0.5 µM) of 0.428. It also gave a relative viability (NCI-H1650; first compound 0.005 µM) of 0.358, a relative viability (NCI-H1650; first compound 0.01581 µM) of 0.606 and a relative viability (NCI-H1650; first compound 0.05 µM) of 0.404. The relative viability (NCI-H1650; first compound 0.1581 µM) was 0.36, the relative viability (NCI-H1650; first compound 0.5 µM) was 0.313 and the relative viability (PC-14; first compound 0.005 µM) was 0.611. It also gave a relative viability (PC-14; first compound 0.01581 µM) of 0.598, a relative viability (PC-14; first compound 0.05 µM) of 0.57 and a relative viability (PC-14; first compound 0.1581 µM) of 0.541. It also gave a relative viability (PC-14; first compound 0.5 µM) of 0.616, a relative viability (NCI-H2347; first compound 0.005 µM) of 0.452 and a relative viability (NCI-H2347; first compound 0.01581 µM) of 0.567. The relative viability (NCI-H2347; first compound 0.1581 µM) was 0.321, the relative viability (NCI-H2347; first compound 0.5 µM) was 0.482 and the relative viability (HCC-44; first compound 0.005 µM) was 0.173. It also gave a relative viability (HCC-44; first compound 0.01581 µM) of 0.184, a relative viability (HCC-44; first compound 0.05 µM) of 0.185 and a relative viability (HCC-44; first compound 0.1581 µM) of 0.131. It also gave a relative viability (HCC-44; first compound 0.5 µM) of 0.197, a relative viability (SW 900; first compound 0.005 µM) of 0.484 and a relative viability (SW 900; first compound 0.01581 µM) of 0.638. The relative viability (SW 900; first compound 0.05 µM) was 0.586, the relative viability (SW 900; first compound 0.1581 µM) was 0.556 and the relative viability (SW 900; first compound 0.5 µM) was 0.41. The relative viability (NCI-H520; first compound 0.005 µM) was 0.576, the relative viability (NCI-H520; first compound 0.01581 µM) was 0.758 and the relative viability (NCI-H520; first compound 0.05 µM) was 0.571. The relative viability (NCI-H520; first compound 0.1581 µM) was 0.507, the relative viability (NCI-H520; first compound 0.5 µM) was 0.616 and the relative viability (EPLC-272H; first compound 0.005 µM) was 0.376. The relative viability (EPLC-272H; first compound 0.05 µM) was 0.324, the relative viability (EPLC-272H; first compound 0.1581 µM) was 0.329 and the relative viability (EPLC-272H; first compound 0.5 µM) was 0.253.
